Laboratory results published in PMC8445441, “Elucidating the mechanism by which synthetic helper peptides sensitize Pseudomonas aeruginosa to multiple antibiotics” (PLoS Pathogens, 2021).
Several values for one entry are separate records, joined by “and”; a condition that tells them apart may be missing. Identical values can stand only once. Like-named read-outs stand apart in the source and are kept apart here.

Experiments:
P. aeruginosa HM-214 = details: strain HM-214; antibiotic + D-11 (MICb/MICbc 128/4)
Outline: (§1)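 Two-fold serial dilutions in MHB received an equal volume of bacteria (suspension about 1 × 10^6 CFU/mL). Plates were held 18 h at 37 °C, then read visually for growth. Triplicate, CLSI-based.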

P. aeruginosa AUMC-Pa-5 = assay: microbe, parasite or virus in culture; details: strain AUMC-Pa-5; for FICI: antibiotic + D-11 (MICb/MICbc 64/4); for MICa: MIC of the antibiotic: antibiotic alone; for MICa: MIC of the antibiotic / MICac: MIC of the antibiotic in the combination: unit not given; for MICac: MIC of the antibiotic in the combination: with D-11 at MICbc 4
Outline: as §1

P. aeruginosa PAO1 = assay: microbe, parasite or virus in culture; details: for MIC: Pseudomonas aeruginosa
Outline: as §1

P. aeruginosa AUMC-Pa-6 = assay: microbe, parasite or virus in culture; details: strain AUMC-Pa-6; for FICI: antibiotic + D-11 (MICb/MICbc 64/4); for MICa: MIC of the antibiotic: antibiotic alone; for MICa: MIC of the antibiotic / MICac: MIC of the antibiotic in the combination: unit not given; for MICac: MIC of the antibiotic in the combination: with D-11 at MICbc 4
Outline: as §1

P. aeruginosa AUMC-Pa-3 = assay: microbe, parasite or virus in culture; details: strain AUMC-Pa-3; for FICI: antibiotic + D-11 (MICb/MICbc 128/4); for MICa: MIC of the antibiotic: antibiotic alone; for MICa: MIC of the antibiotic / MICac: MIC of the antibiotic in the combination: unit not given; for MICac: MIC of the antibiotic in the combination: with D-11 at MICbc 4
Outline: as §1

P. aeruginosa AUMC-Pa-4 = assay: microbe, parasite or virus in culture; details: strain AUMC-Pa-4; for FICI: antibiotic + D-11 (MICb/MICbc 128/4); for MICa: MIC of the antibiotic: antibiotic alone; for MICa: MIC of the antibiotic / MICac: MIC of the antibiotic in the combination: unit not given; for MICac: MIC of the antibiotic in the combination: with D-11 at MICbc 4
Outline: as §1

P. aeruginosa ATCC27853 = assay: microbe, parasite or virus in culture; parameters: MICa: MIC of the antibiotic / MICac: MIC of the antibiotic in the combination: unit not given beside the values; details: strain ATCC27853; for FICI: antibiotic + D-11 (MICb/MICbc 32/4)
Outline: as §1

P. aeruginosa PA14 = assay: microbe, parasite or virus in culture; parameters: MICa: MIC of the antibiotic / MICac: MIC of the antibiotic in the combination: unit not given beside the values; details: strain PA14; for FICI: antibiotic + D-11 (MICb/MICbc 128/4); for MICa: MIC of the antibiotic: antibiotic alone; for MICa: MIC of the antibiotic / MICac: MIC of the antibiotic in the combination: unit not given; for MICac: MIC of the antibiotic in the combination: with D-11 at MICbc 4
Outline: as §1

P. aeruginosa NR-31041 = assay: microbe, parasite or virus in culture; parameters: MICa: MIC of the antibiotic / MICac: MIC of the antibiotic in the combination: unit not given beside the values; details: strain NR-31041; for FICI: antibiotic + D-11 (MICb/MICbc 64/4); for MICa: MIC of the antibiotic: antibiotic alone; for MICa: MIC of the antibiotic / MICac: MIC of the antibiotic in the combination: unit not given; for MICac: MIC of the antibiotic in the combination: with D-11 at MICbc 4
Outline: as §1

P. aeruginosa NR-31040 = assay: microbe, parasite or virus in culture; parameters: MICa: MIC of the antibiotic / MICac: MIC of the antibiotic in the combination: unit not given beside the values; details: strain NR-31040; for FICI: antibiotic + D-11 (MICb/MICbc 128/4); for MICa: MIC of the antibiotic: antibiotic alone; for MICa: MIC of the antibiotic / MICac: MIC of the antibiotic in the combination: unit not given; for MICac: MIC of the antibiotic in the combination: with D-11 at MICbc 4
Outline: as §1

P. aeruginosa PAK = assay: microbe, parasite or virus in culture; parameters: MICa: MIC of the antibiotic / MICac: MIC of the antibiotic in the combination: unit not given beside the values; details: strain PAK; for FICI: antibiotic + D-11 (MICb/MICbc 64/4); for MICa: MIC of the antibiotic: antibiotic alone; for MICa: MIC of the antibiotic / MICac: MIC of the antibiotic in the combination: unit not given; for MICac: MIC of the antibiotic in the combination: with D-11 at MICbc 4
Outline: as §1

[1] = tested on: clinical P. aeruginosa isolates; assay: microbe, parasite or virus in culture; details: Pseudomonas aeruginosa, 18 h, antibiotic alone
Outline: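 Broth microdilution per CLSI in MHB, two-fold drug dilutions mixed with an equal volume of bacteria at about 1 × 10^6 CFU/mL. After 18 h at 37 °C, MIC taken as the lowest concentration with no visible growth; run in triplicate.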

P. aeruginosa AUMC-Pa-2 = details: strain AUMC-Pa-2; antibiotic + D-11 (MICb/MICbc 64/4)
Outline: as §1

P. aeruginosa AUMC-Pa-1 = details: strain AUMC-Pa-1; antibiotic + D-11 (MICb/MICbc 128/4)
Outline: as §1

[2] = read-out: Antibiotic sensibility (MIC) of clinical P. aeruginosa isolate AUMC-Pa-1, strain AUMC-Pa-1
[3] = read-out: Antibiotic sensibility (MIC) of clinical P. aeruginosa isolate AUMC-Pa-2, strain AUMC-Pa-2
[4] = read-out: Antibiotic sensibility (MIC) of clinical P. aeruginosa isolate AUMC-Pa-3, strain AUMC-Pa-3
[5] = read-out: Antibiotic sensibility (MIC) of clinical P. aeruginosa isolate AUMC-Pa-4, strain AUMC-Pa-4
[6] = read-out: Antibiotic sensibility (MIC) of clinical P. aeruginosa isolate AUMC-Pa-5, strain AUMC-Pa-5
[7] = read-out: Antibiotic sensibility (MIC) of clinical P. aeruginosa isolate AUMC-Pa-6, strain AUMC-Pa-6
[8] = read-out: Antibiotic sensibility (MIC) of clinical P. aeruginosa isolate HM-214, strain HM-214
[9] = read-out: Antibiotic sensibility (MIC) of clinical P. aeruginosa isolate NR-31040, strain NR-31040
[10] = read-out: Antibiotic sensibility (MIC) of clinical P. aeruginosa isolate NR-31041, strain NR-31041

CC[C@H]1OC(=O)[C@H](C)[C@@H](O[C@H]2C[C@@](C)(OC)[C@@H](O)[C@H](C)O2)[C@H](C)[C@@H](O[C@@H]2O[C@H](C)C[C@H](N(C)C)[C@H]2O)[C@](C)(O)C[C@@H](C)CN(C)[C@H](C)[C@@H](O)[C@]1(C)O [Azithromycin]
FICI (P. aeruginosa HM-214): 0.281
FICI (P. aeruginosa AUMC-Pa-5): 0.313
MICa: MIC of the antibiotic (P. aeruginosa AUMC-Pa-5): 128
MICac: MIC of the antibiotic in the combination (P. aeruginosa AUMC-Pa-5): 32
MIC (P. aeruginosa PAO1; PAO1, read-out: MIC for azithromycin, azithromycin alone, PAO1): 128 µM
MIC (P. aeruginosa PAO1; PAO1, read-out: MIC of AZM, initial bacterial density 10^3 CFU/mL): 64 µM
MIC (P. aeruginosa PAO1; PAO1, read-out: MIC of AZM, initial bacterial density 10^4 CFU/mL): 64 µM
MIC (P. aeruginosa PAO1; PAO1, read-out: MIC of AZM, initial bacterial density 10^5 CFU/mL): 128 µM
MIC (P. aeruginosa PAO1; PAO1, read-out: MIC of AZM, initial bacterial density 10^6 CFU/mL): 128 µM
MICa: the MIC of antibiotics (P. aeruginosa PAO1; S1 Table, macrolide alone, PAO1): 128 µM
MICa: the MIC of azithromycin (P. aeruginosa PAO1; azithromycin alone, PAO1, broth microdilution in MHB, 18 h, 37 °C, triplicate): 128/128 μM and 128 μM
FICI (P. aeruginosa AUMC-Pa-6): 0.313
MICa: MIC of the antibiotic (P. aeruginosa AUMC-Pa-6): 128
MICac: MIC of the antibiotic in the combination (P. aeruginosa AUMC-Pa-6): 32
FICI (P. aeruginosa AUMC-Pa-3): 0.094
MICa: MIC of the antibiotic (P. aeruginosa AUMC-Pa-3): 128
MICac: MIC of the antibiotic in the combination (P. aeruginosa AUMC-Pa-3): 8
FICI (P. aeruginosa AUMC-Pa-4): 0.281
MICa: MIC of the antibiotic (P. aeruginosa AUMC-Pa-4): 128
MICac: MIC of the antibiotic in the combination (P. aeruginosa AUMC-Pa-4): 32
FICI (P. aeruginosa ATCC27853): 0.156
MICa: MIC of the antibiotic (P. aeruginosa ATCC27853; antibiotic alone, unit not given): 128
MICac: MIC of the antibiotic in the combination (P. aeruginosa ATCC27853; with D-11 at MICbc 4, unit not given): 4
FICI (P. aeruginosa PA14): 0.281
MICa: MIC of the antibiotic (P. aeruginosa PA14): 128
MICac: MIC of the antibiotic in the combination (P. aeruginosa PA14): 32
FICI (P. aeruginosa NR-31041): 0.188
MICa: MIC of the antibiotic (P. aeruginosa NR-31041): 128
MICac: MIC of the antibiotic in the combination (P. aeruginosa NR-31041): 16
FICI (P. aeruginosa NR-31040): 0.281
MICa: MIC of the antibiotic (P. aeruginosa NR-31040): 128
MICac: MIC of the antibiotic in the combination (P. aeruginosa NR-31040): 32
FICI (P. aeruginosa PAK): 0.188
MICa: MIC of the antibiotic (P. aeruginosa PAK): 128
MICac: MIC of the antibiotic in the combination (P. aeruginosa PAK): 16
MIC [1, 2]: 128 µM
MIC [1, 3]: 128 µM
MIC [1, 4]: 128 µM
MIC [1, 5]: 128 µM
MIC [1, 6]: 128 µM
MIC [1, 7]: 128 µM
MIC [1, 8]: 128 µM
MIC [1, 9]: 128 µM
MIC [1, 10]: 128 µM
FICI (P. aeruginosa AUMC-Pa-2): 0.313
FICI (P. aeruginosa AUMC-Pa-1): 0.094

O=C(N[C@H](CO)[C@H](O)c1ccc([N+](=O)[O-])cc1)C(Cl)Cl [Chloramphenicol]
FICI (P. aeruginosa HM-214): 0.063
FICI (P. aeruginosa AUMC-Pa-5): 0.188
MICa: MIC of the antibiotic (P. aeruginosa AUMC-Pa-5): 128
MICac: MIC of the antibiotic in the combination (P. aeruginosa AUMC-Pa-5): 16
FICI (P. aeruginosa PAO1; S3 Table, PAO1, antibiotic + 2 μM D-11): 0.094
FICI (P. aeruginosa PAO1; S3 Table, PAO1, antibiotic + 4 μM D-11): 0.156
MICac: the MIC for the antibiotic in the combination (P. aeruginosa PAO1; S3 Table, PAO1, with 2 μM D-11): 4 µM
MICac: the MIC for the antibiotic in the combination (P. aeruginosa PAO1; S3 Table, PAO1, with 4 μM D-11): 4 µM
MICa: the MIC of antibiotics (P. aeruginosa PAO1; S3 Table, antibiotic alone, PAO1): 128 µM
FICI (P. aeruginosa AUMC-Pa-6): 0.094
MICa: MIC of the antibiotic (P. aeruginosa AUMC-Pa-6): 128
MICac: MIC of the antibiotic in the combination (P. aeruginosa AUMC-Pa-6): 4
FICI (P. aeruginosa AUMC-Pa-3): 0.063
MICa: MIC of the antibiotic (P. aeruginosa AUMC-Pa-3): 128
MICac: MIC of the antibiotic in the combination (P. aeruginosa AUMC-Pa-3): 4
FICI (P. aeruginosa AUMC-Pa-4): 0.063
MICa: MIC of the antibiotic (P. aeruginosa AUMC-Pa-4): 128
MICac: MIC of the antibiotic in the combination (P. aeruginosa AUMC-Pa-4): 4
FICI (P. aeruginosa ATCC27853): 0.141
FICI (P. aeruginosa PA14): 0.063
MICa: MIC of the antibiotic (P. aeruginosa PA14): 128
MICac: MIC of the antibiotic in the combination (P. aeruginosa PA14): 4
FICI (P. aeruginosa NR-31041): 0.094
MICa: MIC of the antibiotic (P. aeruginosa NR-31041): 128
MICac: MIC of the antibiotic in the combination (P. aeruginosa NR-31041): 4
FICI (P. aeruginosa NR-31040): 0.063
MICa: MIC of the antibiotic (P. aeruginosa NR-31040): 128
MICac: MIC of the antibiotic in the combination (P. aeruginosa NR-31040): 4
FICI (P. aeruginosa PAK): 0.094
MICa: MIC of the antibiotic (P. aeruginosa PAK): 128
MICac: MIC of the antibiotic in the combination (P. aeruginosa PAK): 4
MIC [1, 2]: > 128 µM
MIC [1, 3]: 128 µM
MIC [1, 4]: 128 µM
MIC [1, 5]: 128 µM
MIC [1, 6]: 128 µM
MIC [1, 7]: 128 µM
MIC [1, 8]: 128 µM
MIC [1, 9]: 128 µM
MIC [1, 10]: 128 µM
FICI (P. aeruginosa AUMC-Pa-2): 0.094
FICI (P. aeruginosa AUMC-Pa-1): 0.047
